The test system of the experiment is Erwinia amylovora. The experiment can be described thus: Test for inhibitory activity against Erwinia amylovora (inhibitory zone on CYE medium plates). It counts as cell-based. As to conditions: after 24 hours, read-out: Inhibitory zone diameter. How it is done: 10 μl of an Erwinia amylovora suspension were plated onto CYE medium at a density of 10^8 cfu/ml. Thereafter, a hole 5 mm in diameter was punched into the center of the plates, and 20 μl of the test solution were introduced. After 24 hours, the inhibitory zone was measured. The reference substance was streptomycin sulfate, and the negative control was tap water.
The product used was an aqueous solution of the preparation according to the invention in the form of granules of formic acid and/or a salt of formic acid, in particular calcium formate, whose content in formic acid and/or a salt of formic acid, in particular calcium formate, was approximately 80% by weight. This preparation was diluted with tap water to give the concentrations stated (based on the granules).

In patent US20130237601A1, “COMPOSITION FOR THE TREATMENT AND/OR PREVENTION OF FIRE BLIGHT” (LANXESS DISTRIBUTION GMBH, priority 2006, published 2013) one finds zone of inhibition data, which are given here for one molecule.

Where a name gives a salt, the structure may show the parent alone.

`[H]/N=C(/N)N[C@H]1[C@H](O)[C@@H](O)[C@H](O[C@@H]2O[C@@H](C)[C@](O)(C=O)[C@H]2O[C@@H]2O[C@@H](CO)[C@H](O)[C@@H](O)[C@@H]2NC)[C@@H](N/C(N)=N\[H])[C@@H]1O` [Streptomycin sulfate, streptomycin sulfate]: the zone of inhibition at 0.001 % strength (concentration 0.001% by weight) was 16 mm. Moreover, the zone of inhibition at 0.01 % strength (concentration 0.01% by weight) was 20 mm. Also, the zone of inhibition at 0.1 % strength (concentration 0.1% by weight) came out at 24 mm.
